From patent US5922731A, “5-[(heteroaryl)alkyl]-3-oxo-pyrido[1,2-a]benzimidazole-4-carboxamide derivatives useful in treating central nervous system disorders” (Ortho Pharmaceutical Corporation, priority 1997, dated 1999)

Assays:
[1] = test system: behavior suppressed by punishment (Rat Conflict); assay: Suppression of Anxiety in the Adult Male Rat (conflict test); format: in vivo; settings: ip, minimum effective dose, p<0.05 1-tailed vs vehicle, 3-min test session, read-out: Rat Conflict MED
Description: The anxiolytic activity of selected compounds of the invention was assessed by determining their ability to release (disinhibit) behavior that had been suppressed by punishment (Vogel, J. R. et al. Psychopharmacology 1971, 21, 1). Male rats were deprived of water for 48 hrs and were deprived of food for 24 hrs prior to testing. After the first 24 hours of water deprivation, they were placed in the conflict chamber for a training period; wherein, they were allowed 200 unpunished licks from a bottle containing tap water. The experiment was run the next day. At the expected time of peak activity, the animals were placed in the chamber and allowed access to tap water. […] Their first lick initiates a 3-min test session. Subsequently,every 20th lick was punished by a 0.2-s shock delivered via the stainless-steel drinking-tube. Vehicle-treated control animals generally were willing to accept a median number of 3 to 8 shocks per test session. […] The Wilcoxon rank-sum test (Mann-WhitneyU-test) was used to test for an increase (p<0.05, 1-tailed) in the median number of shocks in drug-treated groups, compared to a concurrently run vehicle-treated group. The biological assay is considered to be valid if the effects of a known anxiolytic (positive control) are detected, within the same experiment. A compound was considered active if there is a significant difference in the median number of shocks tolerated between the drug-treated group and the control group. The MED was defined as the minimum dose of the drug-treatment as analyzed using the Wilcoxon rank-sum test (SAS; Statistical Analysis System, version 5.16). If the MED value is greater than 10, an active dose of the compound being tested had not been determined.

[2] = target: benzodiazepine site of the GABA-A receptor; assay: Benzodiazepine Receptor Binding Assay (inhibition of 3H-flunitrazepam binding); settings: 3H-flunitrazepam ca. 3 nM; 10-20 min at 25° C.
Description: Selected compounds, which were prepared according to the experimental details given in the following examples, were tested for binding to the benzodiazepine site of the GABA-A receptor (Williams, M. et al., J. Pharm. Exper. Therap. 1988, 248, 89). The ability of the compounds of the invention to inhibit the binding of flunitrazepam to prepared receptors was assessed. For each sample, membranes from ca. 10 mg of tissue were incubated in a K2 HPO4 -buffered incubation medium (final concentration=2.0 mL). The concentration of ligand (^3 H-flunitrazepam) was ca. 3 nM. Samples were incubated 10-20 min at 25° C., after which the membrane material and bound ligand was collected on glass fiber filter sheets using vacuum filtration. The collected material was washed with 10 mM HEPES buffered solution, and the radioactivity associated with each sample was measured by liquid scintillation spectrometry. The binding of the test drug to the receptor was determined by comparing the amount of radiolabeled ligand bound in control samples to the amount of ligand bound in the presence of the drug. Concentration-response data were analyzed in a variety of ways. The IC50 was usually calculated by transforming the data to a log-logit format, then performing a linear regression analysis. This procedure provides a Hill coefficient as well as the IC50 value. An IC50 value of over 10,000 for a particular compound would indicate that the compound was not active in this screen. This is a general screen and compounds active here are have potential utility for the treatment of one or more disorders of the central nervous system.

[3] = test system: metrazol-induced convulsions; assay: Suppression of Metrazol-Induced Convulsions in Adult Male Mice; format: in vivo, mouse (male CD1); settings: 0.5 h; mouse, ip; block of clonic convulsions, CD90 dose of metrazol sc, 30 min observation
Description: Compounds of the invention were tested for their ability to reduce metrazol-induced convulsions in mice (Swinyard, E. A. J. Am. Pharm Assoc. 1949, 38, 201). Male CD1 mice, were fasted at least 16 hours, were divided into equal groups and test compounds or vehicle were administered parenterally. Water was not withheld except during the period of observations. At the time of suspected peak activity, anti-pentylenetetrazol (anti-metrazol) activity was evaluated by the subcutaneous administration of the CD90 dose of metrazol (the dose of metrazol was determined from the dose-response curve producing clonic convulsions in 90% of animals that received the corresponding vehicle for this experiment). Metrazol was dissolved in 0.9% sodium chloride solution, and its dose volume was 10 mL/kg. Animals were housed individually for observation of clonic convulsions, tonic convulsions and death for a period of 30 min. Test compounds that blocked the clonic seizure component of the convulsion in at least 50% of the animals were considered active. The biological assay was considered to be valid if the effects of a known anticonvulsant (positive control) were detected, within the same experiment. Activity was reported as percent reduction of clonic convulsions from the vehicle group. The ED50 values of active compounds were calculated by the method of probits (Finney, D. J. 1971. Probit Analysis. London: Cambridge University Press) and are listed in Table 1. […] Compounds active in this screen are considered active anticonvulsion/antiepileptic agents.

IC50 [2] | SMILES | minimal effective dose [1] | ED50 [3]
0.59 nM | O=C1CCN2C(=C1C(=O)Nc1ccccc1F)N(Cc1ccco1)c1cc(F)ccc12 [CP# 11] | > 10 mg/kg | < 10 mg/kg
0.29 nM | O=C1CCN2C(=C1C(=O)Nc1ccccc1F)N(Cc1c[nH]cn1)c1cc(F)ccc12 [CP# 12, 7-Fluoro-1,2-dihydro-5-[(4-imidazo)methyl]-3-oxo-N-(2-fluorophenyl)pyrido-[1,2-a]benzimidazole-4-carboxamide] | > 10 mg/kg | 30 mg/kg
5.19 nM | O=C1CCN2C(=C1C(=O)Nc1ccccc1F)N(Cc1ccc[n+]([O-])c1)c1cc(F)ccc12 [CP# 13] | > 10 mg/kg | 3 mg/kg
13.4 nM | O=C1CCN2C(=C1C(=O)Nc1ccccc1F)N(Cc1cc[n+]([O-])cc1)c1cc(F)ccc12 [CP# 14] | > 10 mg/kg | 10 mg/kg
0.89 nM | O=C1CCN2C(=C1C(=O)Nc1ccccc1F)N(CCc1ccccn1)c1cc(F)ccc12 [CP# 15] | 10 mg/kg | 0.3 mg/kg
3.01 nM | O=C1CCN2C(=C1C(=O)Nc1ccccc1F)N(Cc1ccncc1)c1cc(F)ccc12 [CP# 16] | > 10 mg/kg | 3 mg/kg
1.27 nM | O=C1CCN2C(=C1C(=O)Nc1ccccc1F)N(Cc1cccnc1)c1cc(F)ccc12 [CP# 17, 7-Fluoro-1,2-dihydro-5-(3-pyridylmethyl)-3-oxo-N-(2-fluorophenyl)pyrido[1,2-a]benzimidazole-4-carboxamide] | > 10 mg/kg | 1 mg/kg
0.61 nM | O=C1CCN2C(=C1C(=O)Nc1c(F)cccc1F)N(CCc1cccs1)c1cc(F)ccc12 [CP# 18] | > 10 mg/kg | 10 mg/kg
0.71 nM | O=C1CCN2C(=C1C(=O)Nc1ccccc1F)N(Cc1ccsc1)c1cc(F)ccc12 [CP# 19, 7-Fluoro-1,2-dihydro-5-[(3-thienyl)methyl]-3-oxo-N-(2-fluorophenyl)pyrido-[1,2-a]benzimidazole-4-carboxamide] | < 10 mg/kg | 0.7 mg/kg
0.096 nM | O=C1CCN2C(=C1C(=O)Nc1ccccc1F)N(CCc1ccsc1)c1cc(F)ccc12 [CP# 20, 7-Fluoro-1,2-dihydro-5-[2-(3-thienyl)ethyl]3-oxo-N-(2-fluorophenyl)pyrido[1,2-a]benzimidazole-4-carboxamide] | < 10 mg/kg | 0.1 mg/kg
0.3 nM | O=C1CCN2C(=C1C(=O)Nc1ccccc1F)N(Cc1cccs1)c1cc(F)ccc12 [CP# 21, 7-Fluoro-1,2-dihydro-5-[(2-thienyl)methyl]-3-oxo-N-(2-fluorophenyl)pyrido-[1,2-a]benzimidazole-4-carboxamide] | < 10 mg/kg | < 1 mg/kg
2.79 nM | O=C1CCN2C(=C1C(=O)Nc1ccccc1F)N(Cc1ccccn1)c1cc(F)ccc12 [CP# 22] | < 10 mg/kg | < 1 mg/kg
4.24 nM | O=C1CCN2C(=C1C(=O)Nc1c(F)cccc1F)N(Cc1ccsc1)c1cc(F)ccc12 [CP# 23] | > 10 mg/kg | > 10 mg/kg
24.4 nM | O=C1CCN2C(=C1C(=O)Nc1c(F)cccc1F)N(Cc1ccccn1)c1cc(F)ccc12 [CP# 24] | 10 mg/kg | 3 mg/kg
0.22 nM | O=C1CCN2C(=C1C(=O)Nc1c(F)cccc1F)N(CCc1ccsc1)c1cc(F)ccc12 [CP# 25] | < 10 mg/kg | 3 mg/kg
2.98 nM | O=C1CCN2C(=C1C(=O)Nc1c(F)cccc1F)N(Cc1cccs1)c1cc(F)ccc12 [CP# 26] | > 10 mg/kg | < 10 mg/kg
1.26 nM | O=C1CCN2C(=C1C(=O)Nc1c(F)cccc1F)N(Cc1ccco1)c1cc(F)ccc12 [CP# 27] | > 10 mg/kg | 1 mg/kg
3.77 nM | O=C1CCN2C(=C1C(=O)Nc1ccccc1F)N(Cc1ccccn1)c1ccccc12 [CP# 28, 1,2-Dihydro-5-(2-pyridylmethyl)-3-oxo-N-(2-fluorophenyl)pyrido[1,2-a]-benzimidazole-4-carboxamide] | < 10 mg/kg | 0.5 mg/kg
23.9 nM | O=C1CCN2C(=C1C(=O)Nc1c(F)cccc1F)N(Cc1ccccn1)c1ccccc12 [CP# 29] | > 10 mg/kg | 3 mg/kg
4.54 nM | O=C1CCN2C(=C1C(=O)Nc1ccccc1F)N(Cc1cccnc1)c1ccccc12 [CP# 30] | 10 mg/kg | 10 mg/kg
